Results: US12384769B2, “Heteroaryl-substituted aminoalkyl azole compounds as pesticides” (Elanco Animal Health GmbH, priority 2019, dated 2025)

Assays:
Format in all cases: in vivo
[1] = system: Ctenocephalides felis; assay: Ctenocephalides felis oral test (CTECFE); conditions: 48 h, 100 ppm in cattle blood, after 2 days
How it was run: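 About 20 adult unfed fleas fed through parafilm on cattle blood held at 37° C and dosed with compound from a DMSO concentrate; flea chamber at room temperature. Percent mortality scored after 2 days.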

[2] = system: Rhipicephalus microplus (strain Parkhurst, resistant against synthetic pyrethroids); assay: Rhipicephalus microplus in-vitro contact test, larval cattle tick (BOOPMI Contact); conditions: 5 μg/cm^2 (=500 g/ha), after 48 hours, read-out: activity (efficacy, larvae dead or moribund)
How it was run: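 Efficacy, expressed as percentage of larvae dead or moribund, is judged by negative geotactic behaviour 48 h after larvae (20-50 per tube) enter tubes whose inner walls carry a dried acetone film of compound, 5 μg/cm² at 900 ppm. Incubation: horizontal, 27 °C, 85% relative humidity.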

[3] = system: Diabrotica balteata; assay: Diabrotica balteata spray test; conditions: 168 h, wheat seeds, after 7 days, read-out: activity (efficacy, seedlings grown); for pest or weed control at 160 µg/disc, 500 g/ha: 500 g/ha (=160 μg/well)
How it was run: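 Efficacy was read 7 days after infesting each unit with 10–20 banded cucumber beetle larvae, as % of seedlings growing like untreated, uninfested controls. Before infestation, wheat seeds germinated 1 day on agar (5 per well) were sprayed with the active ingredient. The active was formulated in acetone/DMF and diluted in water containing emulsifier.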

[4] = system: Myzus persicae; assay: Myzus persicae spray test; conditions: foliar, 120 h, Chinese cabbage leaf disks, after 5 days
Protocol: Myzus persicae—Spray Test
Solvent: 78.0 parts by weight acetone • 1.5 parts by weight dimethylformamide
Emulsifier: alkylarylpolyglycol ether
To produce a suitable preparation of active compound, 1 part by weight of active compound is mixed with the stated amount of solvents and is diluted with water, containing an emulsifier concentration of 1000 ppm, to the desired concentration. Further test concentrations are prepared by dilution with emulsifier containing water.
Chinese cabbage (Brassica pekinensis) leaf disks infected with all instars of the green peach aphid (Myzus persicae), are sprayed with a preparation of the active ingredient of the desired concentration.
(§1) After 5 days mortality in % is determined. 100% means all aphids have been killed and 0% means none of the aphids have been killed.

[5] = system: Aedes aegypti strain MONHEIM; assay: Aedes aegypti test (AEDSAE surface treatment & contact assay); conditions: 30 minutes exposure, 24 hours after contact, read-out: efficacy (mortality); for mortality at 4 mg/m2: surface concentration 4 mg/m^2, glazed tile; for mortality at 20 mg/m2: surface concentration 20 mg/m^2, glazed tile
Protocol: Aedes aegypti Test (AEDSAE Surface Treatment & Contact Assay)
(§2) Solvent: Aceton+2000 ppm rapeseed oil methyl ester (RME)
In order to produce a sufficient, active ingredient containing solution it is necessary to solve the test compound in the solvent-mix (acetone at 2 mg/mL/RME 2000 ppm). This solution is pipetted onto a glazed tile and after evaporation of the acetone, adult mosquitoes of the species Aedes aegypti strain MONHEIM are placed onto the dried surface. The exposure time is 30 minutes.
(§3) Mortality in percent (%) is determined 24 hours after contact of the insects to the treated surface. 100% mortality means that all tested insects are dead, whereas 0% means that no insect died.

[6] = system: Spodoptera frugiperda; assay: Spodoptera frugiperda spray test; conditions: in Zea mays, 168 h, read-out: activity (mortality)
How it was run: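 Larvae of fall armyworm placed on dried maize leaf sections previously sprayed with emulsified compound (acetone/DMF solvent, water with 1000 ppm emulsifier). Percent of caterpillars killed recorded on day 7, 0–100% scale.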

[7] = system: Musca domestica strain WHO-N; assay: Musca domestica test (MUSCDO surface treatment & contact assay); conditions: 30 minutes exposure, 24 hours after contact, read-out: efficacy (mortality); for mortality at 4 mg/m2: surface concentration 4 mg/m^2, glazed tile
Protocol: Musca domestica Test (MUSCDO Surface Treatment & Contact Assay)
as §2
In order to produce a sufficient, active ingredient containing solution it is necessary to solve the test compound in the solvent-mix (acetone at 2 mg/mL/RME 2000 ppm). This solution is pipetted onto a glazed tile and after evaporation of the acetone, adult flies of the species Musca domestica strain WHO—N are placed onto the dried surface. The exposure time is 30 minutes.
as §3

[8] = system: Myzus persicae; assay: Myzus persicae oral test; conditions: 120 h, after 5 days
Protocol: Solvent: 100 parts by weight acetone
Afterwards the plates are sealed with parafilm through which a mixed population of the green peach aphid (Myzus persicae) can suck on the compound preparation.
as §1

[9] = system: Rhipicephalus sanguineus; assay: Rhipicephalus sanguineus in-vitro contact test, adult brown dog ticks (RHIPSA Contact); conditions: 5 μg/cm^2 (=500 g/ha), after 48 hours, read-out: activity (efficacy, ticks dead or moribund)
Protocol: Rhipicephalus sanguineus—in-Vitro Contact Tests with Adult Brown Dog Ticks (RHIPSA Contact)
9 mg compound is solved in 1 ml acetone and diluted with acetone to the desired concentration. 250 μl_, of the test solution is filled in 25 ml glass test tubes and homogeneously distributed on the inner walls by rotation and tilting on a shaking device (2 h at 30 rpm). With a compound concentration of 900 ppm, an inner surface of 44.7 cm^2 and a homogeneous distribution, a dose of 5 μg/cm^2 is achieved.
After the solvent has evaporated, each test tube is filled with 5-10 adult brown dog ticks (Rhipicephalus sanguineus), closed with a perforated lid and incubated in a lying position at room temperature and relative humidity. After 48 hours efficacy is determined. The ticks are patted on the ground of the tubes and are incubated on a heating plate at 45-50° C. for at most 5 minutes Immotile or uncoordinated moving ticks, which are not able to escape the heat by climbing upwards, are marked as dead or moribund.
An efficacy of 100% means all ticks are dead or moribund; 0% means no ticks are dead or moribund.

[10] = system: Ctenocephalides felis; assay: Ctenocephalides felis in-vitro contact test, adult cat flea; conditions: 5 μg/cm^2 (=500 g/ha), after 48 hours, read-out: activity (efficacy, fleas dead or moribund)
How it was run: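 Acetone solutions coated onto inner walls of glass tubes; 900 ppm gives 5 μg/cm^2. After drying, 5-10 adult Ctenocephalides felis per tube held 48 h at room temperature. Fleas then placed on 45-50° C. plate for up to 5 min; those unable to climb away scored dead or moribund, efficacy as % dead/moribund.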

[11] = system: Anopheles funestus strain FUMOZ-R; assay: Anopheles funestus test (ANPHFU surface treatment & contact assay); conditions: 30 minutes exposure, 24 hours after contact, read-out: efficacy (mortality); for mortality at 4 mg/m2: surface concentration 4 mg/m^2, glazed tile; for mortality at 20 mg/m2: surface concentration 20 mg/m^2, glazed tile
Protocol: Anopheles funestus Test (ANPHFU Surface Treatment & Contact Assay)
as §2
In order to produce a sufficient, active ingredient containing solution it is necessary to solve the test compound in the solvent-mix (acetone at 2 mg/mL/RME 2000 ppm). This solution is pipetted onto a glazed tile and after evaporation of the acetone, adult mosquitoes of the species Anopheles funestus strain FUMOZ-R (Hunt et al., Med. Vet. Entomol. 2005 September; 19(3): 271-275) are placed onto the dried surface. The exposure time is 30 minutes.
as §3

[12] = system: Boophilus microplus; assay: Boophilus microplus injection test (BOOPMI Injection); conditions: Rhipicephalus microplus, 168 h, injection into adult engorged female ticks, egg deposition after 7 days, read-out: activity (efficacy, infertile eggs); for pest or weed control at 0.02 mg: 20 μg/animal
How it was run: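 Adult engorged female ticks (5 per group) injected into the abdomen with 1 μL compound in DMSO, then held in a climate chamber. Fertile egg deposition scored after 7 days, with unclear eggs kept until hatching (~42 days). Efficacy 100% = all eggs infertile, 0% = all fertile.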

Structure (SMILES)	mortality at 100 ppm [1]	pest or weed control at 5 µg/cm2 [2]	pest or weed control at 160 µg/disc, 500 g/ha [3]	mortality at 500 g/ha ([4]; 500 g/ha)	mortality at 4 mg/m2 [5]	mortality at 20 mg/m2 [5]	mortality at 100 g/ha [6]	mortality at 4 mg/m2 [7]	mortality at 4 ppm [8]	pest or weed control at 5 µg/cm2, 5 µg/cm2 [9]	pest or weed control at 5 µg/cm2, 5 µg/cm2 [10]	mortality at 4 mg/m2 [11]	pest or weed control at 100 g/ha [3]	mortality at 500 g/ha [6]	pest or weed control at 0.004 mg ([12]; 4 μg/animal)	pest or weed control at 0.02 mg [12]	mortality at 20 mg/m2 [11]	mortality at 100 g/ha [4]	mortality at 20 mg/m2 ([7]; surface concentration 20 mg/m^2, glazed tile)
C[C@H](Nc1nc2cc(Cl)cc(Cl)c2o1)c1ncnn1-c1ncccn1 [Example I-013]	90%	100%	100%	100%															
C[C@H](Nc1nc2cc(C(F)(F)F)c(Cl)cc2o1)c1ncnn1-c1ncc(F)cn1 [Example I-061, 6-Chlor-N-{(1S)-1-[1-(5-fluorpyrimidin-2-yl)-1H-1,2,4-triazol-5-yl]ethyl}-5-(trifluormethyl)-1,3-benzoxazol-2-amin]		100%			85 to 100%	90 to 100%	100%	90 to 100%	100%	80%	100%	85 to 100%	100%						
C[C@H](Nc1nc2cc(C(F)(F)F)cc(Cl)c2o1)c1ncnn1-c1ncccn1 [Example I-006]	100%	100%	100%		85 to 100%		100%		90%		100%			100%	100%	100%			
C[C@H](Nc1nc2cc(OC(F)(F)F)c(Cl)cc2o1)c1ncnn1-c1ncccn1 [Example I-082, 6-Chlor-N-{(1S)-1-[1-(pyrimidin-2-yl)-1H-1,2,4-triazol-5-yl]ethyl}-5-(trifluormethoxy)-1,3-benzoxazol-2-amin]		100%					100%		100%	100%	100%		100%						
C[C@H](Nc1nc2cc(C(F)(F)F)c(Cl)cc2o1)c1ncnn1-c1ncc(Cl)cn1 [Example I-059, 6-Chlor-N-{(1)S-1-[1-(5-chlorpyrimidin-2-yl)-1H-1,2,4-triazol-5-yl]ethyl}-5-(trifluormethyl)-1,3-benzoxazol-2-amin]		100%			85 to 100%	90 to 100%	100%	90 to 100%	90%	100%	100%	85 to 100%	100%				90 to 100%		
C[C@H](Nc1nc2c(Cl)cc(C(F)(F)F)cn2n1)c1ncnn1-c1ncccn1 [Example I-092, 8-chloro-N-{(1S)-1-[1-(pyrimidin-2-yl)-1H-1,2,4-triazol-5-yl]ethyl}-6-(trifluoromethyl)[1,2,4]triazolo[1,5-a]pyridin-2-amine]	100%	100%									90%					100%		90%	
C[C@H](Nc1nc2cc(OC(F)(F)F)c(Cl)cc2o1)c1ncnn1-c1ncc(F)cn1 [Example I-081, 6-Chlor-N-{(1S)-1-[1-(5-fluorpyrimidin-2-yl)-1H-1,2,4-triazol-5-yl]ethyl}-5-(trifluormethoxy)-1,3-benzoxazol-2-amin]		90%			85 to 100%	90 to 100%	100%	90 to 100%	90%	100%	100%	85 to 100%	100%				90 to 100%	90%	90 to 100%
C[C@H](Nc1nc2c(Cl)cc(C(F)(F)F)cn2n1)c1ncnn1-c1ncc(Br)cn1 [Example I-093, N-{(1S)-1-[1-(5-bromopyrimidin-2-yl)-1H-1,2,4-triazol-5-yl]ethyl}-8-chloro-6-(trifluoromethyl)[1,2,4]triazolo[1,5-a]pyridin-2-amine]	100%	100%									100%							90%	
